This note sets out measurements from ChEMBL document CHEMBL6074678, “Selectively Antagonizing the NOD1-Mediated Inflammatory Signaling Pathway Mitigates the Gastric Inflammation Induced by Helicobacter pylori Infection” (J Med Chem, 2024).

SMILES strings stand for the structures. ≈ marks a conversion by molar mass, not a printed value.

The target in data set [1] is T1, Nucleotide-binding oligomerization domain-containing protein 1 (Homo sapiens, UniProt Q9Y239).
T1 sequence (Q9Y239 whole entry): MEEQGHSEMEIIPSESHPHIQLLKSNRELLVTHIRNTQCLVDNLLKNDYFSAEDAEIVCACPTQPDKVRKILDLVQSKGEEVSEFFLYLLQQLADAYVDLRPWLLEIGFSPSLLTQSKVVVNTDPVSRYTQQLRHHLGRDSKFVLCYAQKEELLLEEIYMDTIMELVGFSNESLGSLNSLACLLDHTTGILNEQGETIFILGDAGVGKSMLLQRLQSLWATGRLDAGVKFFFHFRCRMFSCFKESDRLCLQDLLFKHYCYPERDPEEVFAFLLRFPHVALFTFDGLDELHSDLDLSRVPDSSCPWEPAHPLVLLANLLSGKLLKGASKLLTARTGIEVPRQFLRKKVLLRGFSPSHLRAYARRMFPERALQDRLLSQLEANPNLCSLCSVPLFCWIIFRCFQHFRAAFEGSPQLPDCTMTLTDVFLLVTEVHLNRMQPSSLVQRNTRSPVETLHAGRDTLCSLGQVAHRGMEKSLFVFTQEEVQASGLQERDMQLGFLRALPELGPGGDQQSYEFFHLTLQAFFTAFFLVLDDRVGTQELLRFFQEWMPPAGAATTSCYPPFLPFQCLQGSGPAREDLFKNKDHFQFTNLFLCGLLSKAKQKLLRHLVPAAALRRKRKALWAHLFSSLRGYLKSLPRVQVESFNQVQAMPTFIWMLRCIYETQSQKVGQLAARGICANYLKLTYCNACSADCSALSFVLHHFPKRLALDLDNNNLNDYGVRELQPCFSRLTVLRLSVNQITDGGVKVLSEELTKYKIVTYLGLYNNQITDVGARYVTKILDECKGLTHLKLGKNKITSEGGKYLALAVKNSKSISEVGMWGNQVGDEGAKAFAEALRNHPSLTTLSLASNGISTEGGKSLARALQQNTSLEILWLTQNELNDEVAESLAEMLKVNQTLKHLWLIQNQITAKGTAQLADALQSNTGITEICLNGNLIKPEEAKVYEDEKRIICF
The data set is described as follows: Antagonist activity at human NOD1 expressed in HEK-Blue cells assessed as decrease in SEAP secretion incubated for 3 hrs followed by C12-iE-DAP stimulation for 20 hrs by spectrophotometry. In kind it is cell-based, HEK-Blue hNOD1.

Data set [2] can be described thus: Metabolic stability in mouse liver microsomes assessed as half life at 1.25 uM preincubated for 5 mins followed by NADPH addition measured upto 120 mins by LC-MS/MS analysis. In kind it is ADME, Microsome. The note with it: time < 125 min.
Data set [3] has as its target Nucleotide-binding oligomerization domain-containing protein 2 (Homo sapiens, UniProt Q9HC29). The data set is described as follows: Inhibition of human NOD2 at 1 uM relative to control.
Data set [4] deals with T2, Toll-like receptor 9 (Homo sapiens) (UniProt Q9NR96).
T2 sequence (whole entry): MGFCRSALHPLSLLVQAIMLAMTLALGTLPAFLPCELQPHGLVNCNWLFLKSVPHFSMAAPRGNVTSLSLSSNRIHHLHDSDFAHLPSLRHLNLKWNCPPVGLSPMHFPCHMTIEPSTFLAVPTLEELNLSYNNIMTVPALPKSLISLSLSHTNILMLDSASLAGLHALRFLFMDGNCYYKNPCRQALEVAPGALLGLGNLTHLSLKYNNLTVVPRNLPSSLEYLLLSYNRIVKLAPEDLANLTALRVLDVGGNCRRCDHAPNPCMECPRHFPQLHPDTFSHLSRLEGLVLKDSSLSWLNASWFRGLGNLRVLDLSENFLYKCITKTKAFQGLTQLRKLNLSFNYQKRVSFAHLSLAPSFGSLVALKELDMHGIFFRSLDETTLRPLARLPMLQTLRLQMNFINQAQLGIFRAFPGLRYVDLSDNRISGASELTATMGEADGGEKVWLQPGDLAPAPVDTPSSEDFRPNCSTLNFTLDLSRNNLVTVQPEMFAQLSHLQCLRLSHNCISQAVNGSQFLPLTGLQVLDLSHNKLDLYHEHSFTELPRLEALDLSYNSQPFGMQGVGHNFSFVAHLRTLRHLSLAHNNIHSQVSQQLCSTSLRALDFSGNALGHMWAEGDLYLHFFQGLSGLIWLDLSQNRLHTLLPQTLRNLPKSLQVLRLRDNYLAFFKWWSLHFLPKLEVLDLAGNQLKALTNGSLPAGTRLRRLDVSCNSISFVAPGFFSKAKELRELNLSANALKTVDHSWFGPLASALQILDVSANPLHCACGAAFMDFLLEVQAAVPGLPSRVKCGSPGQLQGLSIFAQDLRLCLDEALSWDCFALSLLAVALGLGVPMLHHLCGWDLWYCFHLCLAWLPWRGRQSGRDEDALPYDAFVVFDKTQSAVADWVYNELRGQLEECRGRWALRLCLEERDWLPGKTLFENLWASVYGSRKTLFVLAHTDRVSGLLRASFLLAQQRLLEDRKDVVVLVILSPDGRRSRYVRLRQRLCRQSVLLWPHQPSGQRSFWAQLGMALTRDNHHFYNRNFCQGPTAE
The experiment in a line: Inhibition of human TLR9 at 1 uM relative to control.

Data set [5] is described as follows: Solubility of compound in phosphate buffer at pH 7.2 to 7.4. In kind it is physicochemical.

Nucleotide-binding oligomerization domain-containing protein 2, sequence (Q9HC29 whole entry, the tested form may be a part): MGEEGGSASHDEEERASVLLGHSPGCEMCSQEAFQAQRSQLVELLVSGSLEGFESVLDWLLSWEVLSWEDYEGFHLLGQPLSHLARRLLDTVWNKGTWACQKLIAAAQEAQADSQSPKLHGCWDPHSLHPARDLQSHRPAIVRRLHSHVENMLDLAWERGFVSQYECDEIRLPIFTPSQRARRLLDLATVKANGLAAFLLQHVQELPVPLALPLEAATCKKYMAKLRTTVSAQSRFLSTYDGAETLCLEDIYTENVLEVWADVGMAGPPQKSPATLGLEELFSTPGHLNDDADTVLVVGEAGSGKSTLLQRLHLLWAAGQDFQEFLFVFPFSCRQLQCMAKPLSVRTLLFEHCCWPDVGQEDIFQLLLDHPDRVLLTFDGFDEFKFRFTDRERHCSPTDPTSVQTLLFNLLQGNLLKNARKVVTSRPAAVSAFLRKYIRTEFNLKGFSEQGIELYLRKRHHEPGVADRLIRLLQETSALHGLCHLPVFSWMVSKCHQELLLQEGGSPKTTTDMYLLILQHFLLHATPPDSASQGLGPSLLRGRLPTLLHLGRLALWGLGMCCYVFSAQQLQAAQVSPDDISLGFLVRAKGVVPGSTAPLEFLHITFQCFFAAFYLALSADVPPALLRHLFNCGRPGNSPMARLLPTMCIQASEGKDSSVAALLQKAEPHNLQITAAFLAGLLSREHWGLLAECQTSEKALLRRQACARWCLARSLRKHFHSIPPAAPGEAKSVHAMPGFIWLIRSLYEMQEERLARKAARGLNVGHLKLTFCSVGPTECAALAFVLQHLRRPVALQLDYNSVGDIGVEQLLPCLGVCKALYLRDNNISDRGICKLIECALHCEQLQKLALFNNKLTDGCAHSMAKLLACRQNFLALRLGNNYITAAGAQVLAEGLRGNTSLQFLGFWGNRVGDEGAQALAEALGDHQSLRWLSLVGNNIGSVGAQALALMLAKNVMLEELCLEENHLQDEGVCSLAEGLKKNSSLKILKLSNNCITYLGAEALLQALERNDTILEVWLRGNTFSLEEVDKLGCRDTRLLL

Regarding `CS(=O)(=O)c1ccc2nc(Cl)n(-c3ccc(Cl)c(NS(=O)(=O)c4ccc5ncsc5c4)c3)c(=O)c2c1`, the half-inhibitory concentration (IC50) (in general, the concentration that gives 50% inhibition) in data set [1] turned out to be 0.9 nM. Also, in data set [2], the half-life (commonly the time in which the quantity being followed falls by half) at 1.25 µM was found to be 22.8 min. Further, the inhibition (as a rule, the relative decrease from the control value, in per cent) in data set [3] is 16.1%; in data set [4], 73.9%. For the same compound, in data set [5], the solubility (as a rule, the dissolved amount per volume that the medium holds) was 21.5 µg/mL (≈ 37 µM).

Take `N#Cc1ccc2nc(Cl)n(-c3ccc(Cl)c(NS(=O)(=O)c4c(F)cccc4F)c3)c(=O)c2c1`: the IC50 in data set [1] was found to be 2.2 nM. Moreover, the half-life at 1.25 µM in data set [2] amounted to 26.5 min. Besides, the inhibition in data set [3] was below 10%; in data set [4], 37.6%. Besides, in data set [5], the solubility is 48.8 µg/mL (≈ 96.2 µM).

As for `CS(=O)(=O)c1ccc2nc(Cl)n(-c3ccc(Cl)c(NS(=O)(=O)c4c(F)cccc4F)c3)c(=O)c2c1`, the half-inhibitory concentration (IC50) in data set [1] was determined as 0.8 nM. Moreover, in data set [2], the half-life at 1.25 µM was found to be 30.1 min. Further, the inhibition in data set [3] stood at 36.9%; in data set [4], 37.1%. The compound further registered a solubility in data set [5] of 44.6 µg/mL (≈ 79.6 µM).
